Source: patent US20080269279A1, “Substituted furo[2,3-B] pyridine derivatives as cannabinoid-1 receptor modulators” (priority 2007, published 2008)

Tested on: human GABA α1β3β2 receptors
Assay: GABAa, 3H-muscimol binding assay
Details: for % GABA Example: activity at 10 μM as percentage of activity of control compound P18 at 10 μM (increase of 3H-muscimol binding); for % GABA Parent: parent compound without R^4 heteroaryl, activity at 10 μM as percentage of activity of control compound P18 at 10 μM
Protocol: Membranes from recombinant Ltk cells expressing human GABA α1β3β2 receptors were suspended in an ice-cold solution of 100 mM KCl, 10 mM KH2PO4, adjusted to pH=7.4 with 1 M KOH. Tritiated muscimol (PerkinElmer, Wellesley, Mass.) at a concentration of 2 nM, and serial five-fold dilutions of test compounds at 10 μM, 2.0 μM, 400 nM, 80 nM, 16 nM, 3.2 nM, 0.64 nM and 0.13 nM were mixed in 96-well plates containing 200 μL of membrane suspension. Cold muscimol and compound P18 were used as negative and positive controls respectively. The assay mixture was incubated at 4° C. for 2 hours, then harvested on GF/C filter plates and washed with ice-cold 50 mM Tris-Ci buffer. The filter plates were dried and counted in a Wallac MicroBeta® Trilux detector (Model 1450-030; PerkinElmer, Wellesley, Mass.), and the data were downloaded and analyzed using Prism 3.0. The activity of compound P18 at 10 μM was used as reference for the test compounds, and it was expressed as increasing ^3H-muscimol binding by 100%, whereas cold muscimol at 2 μM antagonized ^3H-muscimol binding by 100%. The tested compound's activity at 10 μM was expressed as a percentage of compound P18's activity at 10 μM.
As a reference, the parent compound (the compound not substituted with a R^4 heteroaryl, such as pyrazole or 1,2,4-oxadiazole, as indicated below) is also shown with its Gamma Amino Butyric Acid (GABA) Receptor activity. […] As a result, the compounds of the present invention in which R^4 is a heteroaryl, such as pyrazole or 1,2,4-oxadiazole, have the unexpected benefits of minimizing off target activity at the GABA receptor.
Note: % GABA is defined as the GABA activity of the indicated compound expressed as a percentage of the activity of control compound P18. NA=data not available.

With `CC(C)(C)C(=O)c1oc2nc(-c3ccc(-c4cn[nH]c4)cc3Cl)c(-c3ccc(Cl)cc3)cc2c1NC(=O)CO` [Example 32, N-[5-(4-Chlorophenyl)-6-[2-chloro-4-(1H-pyrazol-4-yl)phenyl]-2-(2,2-dimethylpropanoyl)furo[2,3-b]pyridin-3-yl]-2-hydroxyacetamide] the “% GABA Example” value was 29%.
For `CC(=O)Nc1c(C(=O)C(C)C)oc2nc(-c3ccc(-c4c[nH]nc4C)cc3Cl)c(-c3ccc(Cl)cc3)cc12` [Example 33, N-[6-[2-Chloro-4-(3-methyl-1H-pyrazol-4-yl)phenyl]-5-(4-chlorophenyl)-2-isobutyrylfuro[2,3-b]pyridin-3-yl]acetamide], the “% GABA Example” value was 34%.
`Cc1n[nH]cc1-c1ccc(-c2nc3oc(C(=O)C(C)(C)O)c(C)c3cc2-c2ccc(Cl)cc2)c(Cl)c1` [Example 34, 1-[6-[2-Chloro-4-(3-methyl-1H-pyrazol-4-yl)phenyl]-5-(4-chlorophenyl)-3-methylfuro[2,3-b]pyridin-2-yl]-2-hydroxy-2-methylpropan-1-one] was tested, and the “% GABA Example” value was 29%.
In the case of `CCc1c(C(=O)C(C)(C)O)oc2nc(-c3ccc(-c4c[nH]nc4C)cc3Cl)c(-c3ccc(Cl)cc3)cc12` [Example 35, 1-[6-[2-Chloro-4-(3-methyl-1H-pyrazol-4-yl)phenyl]-5-(4-chlorophenyl)-3-ethylfuro[2,3-b]pyridin-2-yl]-2-hydroxy-2-methylpropan-1-one], the “% GABA Example” value is reported as 59%.
For `Cc1n[nH]cc1-c1ccc(-c2nc3oc(C(=O)C(C)(C)C)c(C)c3cc2-c2ccc(Cl)cc2)c(Cl)c1` [Example 36, 1-[6-[2-Chloro-4-(3-methyl-1H-pyrazol-4-yl)phenyl]-5-(4-chlorophenyl)-3-methylfuro[2,3-b]pyridin-2-yl]-2,2-dimethylpropan-1-one], the “% GABA Example” value was 16%.
In the case of `Cc1n[nH]cc1-c1ccc(-c2nc3oc(C(=O)C(C)C)c(N4CCCC4=O)c3cc2-c2ccc(Cl)cc2)c(Cl)c1` [Example 39, 1-[6-[2-Chloro-4-(3-methyl-1H-pyrazol-4-yl)phenyl]-5-(4-chlorophenyl)-2-isobutyrylfuro[2,3-b]pyridin-3-yl]pyrrolidin-2-one], the “% GABA Example” value is reported as 29%.
`Cc1c(C(=O)C(C)(C)C)oc2nc(-c3ccc(-c4ncon4)cc3Cl)c(-c3ccc(Cl)cc3)cc12` [Example 42, 1-[6-[2-Chloro-4-(1,2,4-oxadiazol-3-yl)phenyl]-5-(4-chlorophenyl)-3-methylfuro[2,3-b]pyridin-2-yl]-2,2-dimethylpropan-1-one] was tested, and the “% GABA Example” value was 5%.
With `CC(=O)Nc1c(C(=O)C(C)(C)O)oc2nc(-c3ccccc3Cl)c(-c3ccc(Cl)cc3)cc12` [Example P1, reference compound] the “% GABA Parent” value was 99%.
For `CC(=O)Nc1c(C(=O)C(C)C)oc2nc(-c3ccccc3Cl)c(-c3ccc(Cl)cc3)cc12` [Example P2, reference compound], the “% GABA Parent” value was 107%.
In the case of `CC(=O)Nc1c(C(=O)C(C)(C)C)oc2nc(-c3ccccc3Cl)c(-c3ccc(Cl)cc3)cc12` [Example P3, reference compound], the “% GABA Parent” value is reported as 67%.
For `CCC(=O)c1oc2nc(-c3ccccc3Cl)c(-c3ccc(Cl)cc3)cc2c1NC(C)=O` [Example P4, reference compound], the “% GABA Parent” value was 76%.
With `CC(C)(C)C(=O)c1oc2nc(-c3ccccc3Cl)c(-c3ccc(Cl)cc3)cc2c1N` [Example P5, reference compound] the “% GABA Parent” value was 33%.
In the case of `Cc1c(C(=O)C(C)(C)O)oc2nc(-c3ccccc3Cl)c(-c3ccc(Cl)cc3)cc12` [Example P7, reference compound], the “% GABA Parent” value is reported as 75%.
In the case of `Cc1c(C(=O)C(C)(C)C)oc2nc(-c3ccccc3Cl)c(-c3ccc(Cl)cc3)cc12` [Example P8, reference compound], the “% GABA Parent” value is reported as 25%.
With `Cc1c(S(=O)(=O)C(C)(C)C)oc2nc(-c3ccccc3Cl)c(-c3ccc(Cl)cc3)cc12` [Example P9, reference compound] the “% GABA Parent” value was 29%.
With `Cc1c(C(=O)CC(C)C)oc2nc(-c3ccccc3Cl)c(-c3ccc(Cl)cc3)cc12` [Example P10, reference compound] the “% GABA Parent” value was 59%.
